Assay results from patent US6861524B2, “Acyl and sulfonyl derivatives of 6,9-disubstituted 2-(trans-1,4-diaminocyclohexyl)-purines and their use as antiproliferative agents” (Aventis Pharmaceuticals Inc., priority 2000, dated 2005).
pIC50: −log10 of the molar value. Where a name gives a salt, the structure may show the parent alone. Read-outs that look alike come from different tables or passages of the source.

Legend:
PC-3 = assay: In vitro proliferation assay (MTT), PC-3; format: cell-based, human
Description: (§1) The proliferation of tumor cells can be measured using a tetrazolium salt-based assay known as the MTT (3-[4,5-Dimethylthiazol-2-yl]-2,5-diphenyltetrazolium bromide) assay. […] For the assay, the cell lines are plated onto 96 well plates at 1000 to 2500 cells/well (depending on the properties of the individual cell lines), left to attach and recover overnight. […] After 3 days, the cells are incubated with MTT dye (3-[4,5-Dimethylthiazol-2-yl]-2,5-diphenyltetrazolium bromide, Sigma #M5655, 10 mg/ml in Hank's Buffered Saline) to estimate the amount of live cells remaining vs. concentration for the test compounds. […] The MTT and culture medium is then removed from the cultures and 200 μl of DMSO is added to solubilize the dye from the cell layer. The absorbance at 570 nm is determined for each culture using a Spectramax plate reader (Molecular Devices).
(§2) IC50s were determined from the raw data from either the MTT or SRB assays.
(§3) All of the cell lines were obtained from American Type Tissue Collection, with the ATCC accession number in parentheticals. MCF-7 and MDA-MB-231 cells were grown in improved minimum essential medium (Biofluids) without phenol red, supplemented with 5% fetal bovine serum, 0.01 mg/ml gentamicin and 3 mM L-glutamine.

[1] = Red blood cell binding (RBC to plasma ratio), mouse whole blood; format: in vitro ADME; settings: 30 minutes at 37° C., nominal 500 ng/ml, hematocrit 0.41
Description: (§4) Compounds, including one positive control, are assessed for red blood cell (RBC) uptake, using a modified procedure based on the protocol reported in Sun, J. X. S., et al. High-performance liquid chromatographic analysis, plasma protein binding and red blood cell partitioning of phenprobamate. Biopharmaceutics and Drug Disposition, 8 (1987) 341-351.
(§5) Briefly, RBC uptake is evaluated by comparison of the levels in spiked plasma (n=3) and plasma isolated from spiked whole blood (n=3). Compounds are incubated with human and mouse whole blood, respectively, for 30 minutes at 37° C. using a nominal concentration of 500 ng/ml. Following centrifugation, the plasma is removed and submitted for analysis. Each compound is also spiked into blank plasma at a nominal concentration of 500 ng/ml, and submitted for analysis. Levels in the two plasma samples (Cp′ and Cp in the equation below) and the blood hematocrit are used to determine the red blood cell to plasma ratio (Crbc/Cp). [formula] In equation 1, Cp′ is the level of drug in the spiked “blank” plasma, Cp is the level of drug in the plasma of spiked whole blood, and H is the hematocrit. The hematocrit values are determined as 0.4 for human whole blood and 0.41 for mouse whole blood. The samples are analyzed with ESI LC/MS, using positive ion detection with an internal standard.
(§6) The red blood cell to plasma ratio is determined for each compound using equation 1. Tables 6 and 7 summarize the respective mean Crbc/Cp values and standard deviations for mouse and human whole blood, respectively, in descending order based on the red blood cell to plasma ratio, where “*” denotes Positive Control, and “ND” denotes Not Determined. MDL 108552 is included as a positive control for red blood cell uptake.

[2] = Red blood cell binding (RBC to plasma ratio), human whole blood; format: in vitro ADME; settings: 30 minutes at 37° C., nominal 500 ng/ml
Description: as §4, §5, §6

[3] = Plasma pharmacokinetics in mice after single intravenous cassette doses; settings: for Mean Conc. in plasma: mice
Description: Male mice are given single intravenous cassette doses of CDK inhibitor compounds.
A single intravenous cassette dose (18 or 15 mg/kg free base) is administered. For each compound, this is equivalent to a dose of approx. 3 mg/kg free base. […] The dose is administered at a volume of 10 ml/kg (total volume of approximately 0.25 ml/animal).
Male mice (Hsd:ICR (CD-1® SD®), Harlan), each weighing approximately 20-30 g at the start of the study. […] Water is available ad libitum throughout the study.
A single cassette dose of 5-6 compounds is administered by bolus injection into the tail vein over a 10-15-second period. […] Whole blood (approximately 0.6 ml/sample) is obtained by cardiac puncture and transferred to 3 ml glass tubes containing 45 U sodium heparin.
Sample Processing: Plasma: Whole blood is centrifuged at approximately 3,200 rpm for 10 min at approximately 5° C. and the plasma (approx. 0.3 ml/sample) is transferred to chilled plastic vials and stored at approx. −70° C. until bioanalysis.
Sample Analysis: Concentrations of each test article in plasma are quantitated by a non-validated method based on LC/MS using the following protocol.
Samples are removed from the freezer, allowed to thaw at room temperature, and vortexed to insure complete homogenization prior to sample manipulation. Samples are then prepared according to the following scheme: • 1. transfer 48 μL of plasma (blank mouse sample) into a 12×75 mm test tube. • 2. add 12 μL of working standard to the blank plasma for standard curve preparation. • 3. […] Inject 25 μL on LC/MS. Chromatographic Conditions:
Data Analysis: Concentrations of Compounds in plasma of individual animals are determined by bioanalytics. […] Statistical analyses are limited to simple expressions of variation (mean and standard deviation). The plasma AUC (area-under-curve) is determined by the linear trapezoidal rule. […] All PK parameters are determined by noncompartmental methods using WinNonlin version 3.0 (Pharsight Corp).
The following information is based on a graph of the semi-log of the plasma concentration in ng/ml versus collection time in hours. • “Cmax” represents the maximum plasma concentration. • “t1/2” represents the half-life of the compound. • “AUC0-∞” represents the calculated area under the curve. • “AUC % Extrap(obs.)” represents the extrapolated area under the curve. • “Cls” is the clearance rate.

[4] = system: PC12 cells, or rat sympathetic neurons; settings: Park et al. 1997, cited from earlier work; for concentration giving maximal protection from death: camptothecin-treated PC12 cells or rat sympathetic neurons; for cell death at day 6: camptothecin-treated neuronal cells
cortical neurons = settings: Park et al. 1997; cited from earlier work
SMC = settings: in vitro and in vivo; Ruef et al. 1999; cited from earlier work
herpes simplex virus = settings: Schang et al. 1998; cited from earlier work
cdk4/cyclin D1 = cdk4/cyclin D1 (Homo sapiens, UniProt P11802); assay: Cyclin-dependent kinase assay, cdk4/cyclin D1 (GST-pRb substrate); format: biochemical; settings: inhibition of cyclin D1/CDK 4 enzyme activity
cdk1/cyclin B = cdk1/cyclin B (Homo sapiens, UniProt P06493); assay: Cyclin-dependent kinase assay, cdk1/cyclin B (Histone H1 substrate)
Description: (§7) The IC50 values for cdk1/cyclin B, cdk2/cyclin E, and cdk4/cyclin D1 inhibition are determined using the following methods:
The cdk1 sequence (accession number Y00272) is amplified by PCR and cloned into the BamHI and SalI sites of pFASTBAC1 (Life Technologies).
The cyclin B1 sequence (accession number M25753) is amplified by PCR and cloned into the BamHI and SalI sites of pFASTBAC1 (Life Technologies).
(§8) The cDNA for each of the cyclin-dependent kinases (CDK) and the corresponding cyclins are cloned into the baculovirus expression vector, pFASTBAC1 (Life Technologies). The sequences of each of the constructs are confirmed by automated fluorescent DNA sequencing according to the manufacture's protocol (Perkin Elmer/Applied Biosystems Inc).
(§9) The insect cell (Sf9) expression is optimized for each of the CDK/cyclin pairs according to the manufacturer's protocols (Life Technologies).
(§10) The viruses are added to the cells and the culture is incubated at 27° C. for the desired time. The cells are harvested by centrifugation at 3000 rpm for 10 minutes. The cells are snap frozen on dry ice and stored at −80° C.
(§11) Cell extracts are made following a standard procedure. The cell pellet is resuspended in lysis buffer (50 mM HEPES, pH 8.0, 10 mM MgCl2, 1 mM DTT, 2.5 mM EGTA, 1 mM EDTA, 10 mM β-glycerophosphate, 1 mM sodium vanadate, 1 mM sodium fluoride, 1×Protease inhibitor cocktail). The cells are lysed using the microfluidizer (Microfluidics) for 20 minutes. Cell debris is removed by centrifugation at 100,000×g. The cell extracts are aliquoted in 1 ml aliquots, frozen on dry ice, and stored at −80° C.
The kinase reactions are performed following a standard procedure. The enzyme and inhibitor are diluted in kinase buffer (50 mM HEPES, pH 8.0, 10 mM MgCl2, 2.5 mM EGTA, 10 mM β-glycerophosphate, 1 mM sodium vanadate, 1 mM sodium fluoride, and 1 mM DTT) and pre-incubated for 30 minutes. […] The cdk1 enzyme activity is assayed using Histone H1 (Sigma) in the presence of 10 μM ATP for 30 min at room temperature. The reactions are terminated by the addition of 50 μL of 10 mM cold ATP to stop the reactions. The reactions are transferred to a pre-soaked 96-well multi-screen plate containing 30 μL of 100% TCA per well. After incubation for one hour at room temperature, the plates are washed twice with 200 μl of 20% TCA, followed by 200 μl of 10% TCA and finally with 200 μl of 5% TCA. After drying the plates at room temperature, the filter plates are placed in adapter plates (Packard) and 40 μl of Microscint-O® (Packard) is added to each well. Top Seal A film is used to cover the plates before counting in a Top Count Scintillation Counter.
The % remained activity of the indicated Cdk/cyclin kinase complex in the presence of inhibitor is calculated by the ratio of cpm in the presence of inhibitor to cpm in the absence of inhibitor (% Activity=vi/vo×100%).

MDA-MB-435 = assay: In vitro proliferation assay (MTT), MDA-MB-435; format: cell-based, human; settings: mean (SD, n) where given, read-out: MB-435 Breast (IC50 μM)
Description: as §1, §2, §3

cdk2/cyclin E = cdk2/cyclin E (Homo sapiens, UniProt P24941); assay: Cyclin-dependent kinase assay, cdk2/cyclin E (GST-pRb substrate); settings: read-out: CDK2 IC50; inhibition of cyclin E/CDK 2 enzyme activity
Description: as §7
The cdk2 sequence (accession number X62071) is amplified by PCR and cloned into the SpeI and XhoI sites of pFASTBAC1 (Life Technologies). […] This primer would anneal in the 3′ untranslated sequence.
The cyclin E sequence (accession number M73812) is amplified by PCR and cloned into the XbaI and XhoI sites of pFASTBAC1 (Life Technologies).
as §8, §9, §10, §11
The kinase reactions are performed following a standard procedure. […]
The transformed bacteria are grown overnight to saturation, then diluted in YT broth and incubated at 37° C. for 2 h. […] The beads are washed with kinase buffer and then quantitated of Coomassie blue-stained proteins separated by SDS-PAGE using a protein standard of known concentration.

HL-60 human leukemia = HL-60 human leukemia xenograft in nude mice; format: in vivo; settings: Table 5; 1 mg/kg ip q1d 5x/wk; control 8341 ± 5355
Description: Antitumor efficacy is assessed using two subcutaneous human tumor xenograft models. The studies are performed using conventional assay techniques. Briefly, HL-60 (leukemia, 5×10^5 cells) and PC-3 (prostate, 5×10^6 cells) tumor cells are injected subcutaneously into nude mice (Cr1-CD1-Br-nu, Charles River Laboratory, Wilmington, Mass.). Dosing with compounds began when tumors reached 50 to 100 mm^3. The dose route/schedule for the test compounds is ip/q1d (5×/wk). The test doses are set based on the maximum tolerated dose (MTD). […] The test doses for the efficacy studies are set at ⅓rd the MTD (low dose) and the MTD (high dose). The results are shown in Tables 4 and 5 (HL-60, leukemia) (PC-3, prostate cancer). The length of the treatment phase is dependent on the tumor growth rate for the two models. This treatment phase is typically about 3 weeks for the HL-60 model and about 5 weeks for the PC-3 model. […] Dosing with flavopiridol is for the same time frame as for the experimental compounds in both xenograft models. Tumor volume (twice weekly) and body weights (once weekly) are monitored throughout the course of the treatment phase of the experiment. Tumor sizes are measured by external caliper measurements of protruding tumor. Volumes are calculated using the following formula: volume=½ (a×b2), where b is the smaller of two perpendicular diameters.

Sequence of cdk1/cyclin B (P06493 whole entry): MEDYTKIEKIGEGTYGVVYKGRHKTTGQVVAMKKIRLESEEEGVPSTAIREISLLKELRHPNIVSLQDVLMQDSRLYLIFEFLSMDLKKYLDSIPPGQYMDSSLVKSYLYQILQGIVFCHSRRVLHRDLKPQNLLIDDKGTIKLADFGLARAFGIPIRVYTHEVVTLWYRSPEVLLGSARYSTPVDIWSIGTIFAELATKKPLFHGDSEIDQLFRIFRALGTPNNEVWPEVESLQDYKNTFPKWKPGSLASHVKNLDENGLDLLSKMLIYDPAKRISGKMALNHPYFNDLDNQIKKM
Sequence of cdk1/cyclin B (P14635 whole entry partner): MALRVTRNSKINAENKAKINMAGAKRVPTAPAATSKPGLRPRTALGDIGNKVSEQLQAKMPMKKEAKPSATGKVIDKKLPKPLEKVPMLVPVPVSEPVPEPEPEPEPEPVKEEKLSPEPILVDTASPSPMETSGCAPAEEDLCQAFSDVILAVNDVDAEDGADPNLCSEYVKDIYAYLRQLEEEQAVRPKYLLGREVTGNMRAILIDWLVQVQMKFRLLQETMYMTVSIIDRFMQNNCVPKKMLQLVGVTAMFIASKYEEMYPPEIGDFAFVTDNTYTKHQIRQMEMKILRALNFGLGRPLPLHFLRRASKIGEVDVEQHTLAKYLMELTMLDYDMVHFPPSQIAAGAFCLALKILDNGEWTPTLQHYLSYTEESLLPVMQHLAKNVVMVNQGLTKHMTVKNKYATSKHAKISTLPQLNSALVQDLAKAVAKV
Sequence of cdk4/cyclin D1 (P11802 whole entry): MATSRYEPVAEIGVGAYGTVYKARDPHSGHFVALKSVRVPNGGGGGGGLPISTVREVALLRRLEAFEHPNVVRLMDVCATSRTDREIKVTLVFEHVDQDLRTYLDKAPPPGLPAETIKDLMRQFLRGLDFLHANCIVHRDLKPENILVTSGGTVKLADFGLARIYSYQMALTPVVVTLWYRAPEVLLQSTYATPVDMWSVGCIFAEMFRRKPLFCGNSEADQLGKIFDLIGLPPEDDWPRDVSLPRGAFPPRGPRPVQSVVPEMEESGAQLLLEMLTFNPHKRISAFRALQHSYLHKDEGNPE
Sequence of cdk4/cyclin D1 (P24385 whole entry partner): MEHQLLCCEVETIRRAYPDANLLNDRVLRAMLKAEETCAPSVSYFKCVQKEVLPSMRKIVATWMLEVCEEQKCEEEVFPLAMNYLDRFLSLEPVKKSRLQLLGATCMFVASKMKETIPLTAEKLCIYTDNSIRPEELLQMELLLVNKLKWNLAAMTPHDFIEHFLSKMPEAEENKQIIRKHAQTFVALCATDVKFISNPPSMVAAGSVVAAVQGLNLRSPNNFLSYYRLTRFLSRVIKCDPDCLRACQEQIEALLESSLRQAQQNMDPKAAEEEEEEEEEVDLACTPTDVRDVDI

**Q.** For Cl.Cl.N[C@H]1CC[C@H](Nc2nc(NC3CCN(C(=O)Oc4ccc(F)cc4)CC3)c3ncn(C4CCCC4)c3n2)CC1 [Compound 87, trans-4-[2-(4-Amino-cyclohexylamino)-9-cyclopentyl-9H-purin-6-ylamino]-piperidine-1-carboxylic acid 4-fluoro-phenyl ester dihydrochloride], which IC50 (PC-3; Homo sapiens, PC-3, read-out: PC-3 Prostate (IC50 μM)) is on record?
**A.** 0.16 µM

**Q.** What about the “Mean Red Blood Cell to Plasma Ratio” value [1] of the same compound?
**A.** 3.4

**Q.** What about the “Mean Red Blood Cell to Plasma Ratio” value [2] of the same compound?
**A.** 8.4

**Q.** And the “Mean Conc. in plasma” value ([3]; Cassette #3, single 15 mg/kg iv cassette dose (3 mg/kg/compound), 0.083 h)?
**A.** 1171.4 ± 153.4 ng/mL

**Q.** And the “Mean Conc. in plasma” value ([3]; Cassette #3, single 15 mg/kg iv cassette dose (3 mg/kg/compound), 0.25 h)?
**A.** 371.9 ± 35.9 ng/mL

**Q.** And the “Mean Conc. in plasma” value ([3]; Cassette #3, single 15 mg/kg iv cassette dose (3 mg/kg/compound), 0.5 h)?
**A.** 141.4 ± 9.5 ng/mL

**Q.** And the “Mean Conc. in plasma” value ([3]; Cassette #3, single 15 mg/kg iv cassette dose (3 mg/kg/compound), 1 h)?
**A.** 65.0 ± 14.0 ng/mL

**Q.** And the “Mean Conc. in plasma” value ([3]; Cassette #3, single 15 mg/kg iv cassette dose (3 mg/kg/compound), 3 h)?
**A.** 19.2 ± 6.0 ng/mL

**Q.** What about the “Mean Conc. in plasma” value ([3]; Cassette #3, single 15 mg/kg iv cassette dose (3 mg/kg/compound), 6 h) of the same compound?
**A.** 4.3 ± 0.7 ng/mL

**Q.** What about the “Mean Conc. in plasma” value ([3]; Cassette #3, single 15 mg/kg iv cassette dose (3 mg/kg/compound), 8 h) of the same compound?
**A.** 3.2 ± 1.6 ng/mL

**Q.** And the “Mean Conc. in plasma” value ([3]; Cassette #3, single 15 mg/kg iv cassette dose (3 mg/kg/compound), 24 h)?
**A.** BLQ^a

**Q.** Which results are given for Cn1cnc2nc(NCCO)nc(NCc3ccccc3)c21 [iso-olomoucine]?
**A.** prevention of cell death of camptothecin-treated neuronal cells ([4]; PC12 cells / sympathetic neurons): failed to prevent the cell death; prevention of cell death of camptothecin-treated neuronal cells (cortical neurons): failed to prevent the cell death

**Q.** Which results are given for CN1CC[C@H](c2c(O)cc(O)c3c(=O)cc(-c4ccccc4Cl)oc23)[C@H](O)C1 [Flavopiridol]?
**A.** concentration giving maximal protection from death [4]: 1 µM; cell death at day 6 [4]: approximately 30%; SMC growth (SMC): inhibit SMC growth in vitro and in vivo

**Q.** With Cn1cnc2c(NCc3ccccc3)nc(NCCO)nc21 [Olomoucine, 6-(benzylamino)-2-[(2-hydroxyethyl)amino]-9-methylpurine] as the compound, how does the “concentration giving maximal protection from death” value [4] read?
**A.** 200 µM

**Q.** And the “cell death at day 6” value [4]?
**A.** approximately 30%

**Q.** And the “replication of herpes simplex virus” value (herpes simplex virus)?
**A.** inhibited the replication

**Q.** With N[C@H]1CC[C@H](Nc2nc(NC3CCN(C(=O)/C=C/c4cccc(C(F)(F)F)c4)CC3)c3ncn(C4CCCC4)c3n2)CC1 [Compound 44, trans-(E)-1-{4-[2-(4-Amino-cyclohexylamino)-9-cyclopentyl-9H-purin-6-ylamino]-piperidin-1-yl}-3-(3-trifluoromethyl-phenyl)-propenone dihydrochloride] as the compound, how does the pIC50 (cdk4/cyclin D1) read?
**A.** 5.83

**Q.** And the pIC50 (cdk1/cyclin B)?
**A.** 6.89

**Q.** What does the source list for “trans-3-{4-[2-(4-Amino-cyclohexylamino)-9-cyclopentyl-9H-purin-6-ylamino]-piperidine-1-sulfonyl}-benzoic acid methyl ester dihydrochloride [Compound 135]”?
**A.** pIC50 (cdk4/cyclin D1): 7.21; IC50 (MDA-MB-435): 3.38 µM; IC50 (PC-3; MTT assay, mean (SD, n) where given, read-out: PC-3 Prostate (IC50 μM)): 4.05 µM; pIC50 (cdk2/cyclin E): 8.40; pIC50 (cdk1/cyclin B; read-out: CDK1 IC50, inhibition of cyclin B/CDK 1 enzyme activity): 7.10

**Q.** With NC1CCC(Nc2nc(NC3CCN(C(=O)[C@@H]4C[C@H]4c4ccccc4)CC3)c3ncn(C4CCCC4)c3n2)CC1 (mixture of isomers) [Compound 43, (±)-trans-1-{4-[2-(4-Amino-cyclohexylamino)-9-cyclopentyl-9H-purin-6-ylamino]-piperidin-1-yl}-1-(2-phenyl-cyclopropyl)-methanone dihydrochloride] as the compound, how does the pIC50 (cdk4/cyclin D1) read?
**A.** 6.53

**Q.** And the pIC50 (cdk1/cyclin B)?
**A.** 7.29

**Q.** Which “HL60 Mean Vol. ± SD” value (HL-60 human leukemia) does the source give for Cc1ccc(OC(=O)N2CCC(Nc3nc(N[C@H]4CC[C@H](N)CC4)nc4c3ncn4C3CCCC3)CC2)cc1.Cl.Cl [Compound 82, trans-4-[2-(4-Amino-cyclohexylamino)-9-cyclopentyl-9H-purin-6-ylamino]-piperidine-1-carboxylic acid p-tolyl ester dihydrochloride] here?
**A.** 5164 ± 5516

**Q.** And the “Mean Red Blood Cell to Plasma Ratio” value [2]?
**A.** 5.8

**Q.** And the “Mean Conc. in plasma” value ([3]; Cassette #4, single 15 mg/kg iv cassette dose (3 mg/kg/compound), 0.083 h)?
**A.** 1458.0 ± 77.4 ng/mL

**Q.** What about the “Mean Conc. in plasma” value ([3]; Cassette #4, single 15 mg/kg iv cassette dose (3 mg/kg/compound), 0.25 h) of the same compound?
**A.** 875.3 ± 96.7 ng/mL

**Q.** What about the “Mean Conc. in plasma” value ([3]; Cassette #4, single 15 mg/kg iv cassette dose (3 mg/kg/compound), 0.5 h) of the same compound?
**A.** 369.6 ± 40.0 ng/mL

**Q.** And the “Mean Conc. in plasma” value ([3]; Cassette #4, single 15 mg/kg iv cassette dose (3 mg/kg/compound), 1 h)?
**A.** 133.7 ± 16.3 ng/mL

**Q.** And the “Mean Conc. in plasma” value ([3]; Cassette #4, single 15 mg/kg iv cassette dose (3 mg/kg/compound), 3 h)?
**A.** 37.5 ± 10.7 ng/mL

**Q.** And the “Mean Conc. in plasma” value ([3]; Cassette #4, single 15 mg/kg iv cassette dose (3 mg/kg/compound), 6 h)?
**A.** 14.5 ± 3.4 ng/mL

**Q.** What about the “Mean Conc. in plasma” value ([3]; Cassette #4, single 15 mg/kg iv cassette dose (3 mg/kg/compound), 8 h) of the same compound?
**A.** 12.3 ± 2.2 ng/mL

**Q.** What about the “Mean Conc. in plasma” value ([3]; Cassette #4, single 15 mg/kg iv cassette dose (3 mg/kg/compound), 24 h) of the same compound?
**A.** BLQ

**Q.** And the Cls ([3]; mouse plasma, iv Cassette #4, 3 mg/kg/compound (15 mg/kg total dose))?
**A.** 53.0 mL/min/kg
